From PubChem BioAssay (NCI)
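Dose response: 5 concentrations. Exposure: 48 h. Format: 96-well plates. Endpoint: linear interpolation; highest concentration if not reached. GI50 marks 50% less growth. The concentration for full growth arrest is given as TGI.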

Legend:
Test in all cases: NCI anticancer screen, dose series, 48 h
[1] = system: 786-0 renal
[2] = system: A498 renal
[3] = system: A549 NSCLC
[4] = system: ACHN renal
[5] = system: BT-549 breast
[6] = system: CAKI-1 renal
[7] = system: CCRF-CEM leukemia
[8] = system: COLO 205 colon
[9] = system: DU-145 prostate
[10] = system: EKVX NSCLC
[11] = system: HCT-116 colon
[12] = system: HCT-15 colon
[13] = system: HL-60(TB) leukemia
[14] = system: HOP-62 NSCLC
[15] = system: HOP-92 NSCLC
[16] = system: HS 578T breast
[17] = system: HT29 colon
[18] = system: IGROV1 ovarian
[19] = system: K-562 leukemia
[20] = system: KM12 colon
[21] = system: LOX IMVI melanoma
[22] = system: M14 melanoma
[23] = system: MALME-3M melanoma
[24] = system: MCF7 breast
[25] = system: MDA-MB-231 breast
[26] = system: MDA-MB-435
[27] = system: MDA-N
[28] = system: MOLT-4 leukemia
[29] = system: NCI-H226 lung
[30] = system: NCI-H23 lung
[31] = system: NCI-H460 lung
[32] = system: NCI-H522 lung
[33] = system: NCI/ADR-RES ovarian
[34] = system: OVCAR-3 ovarian
[35] = system: OVCAR-4 ovarian
[36] = system: OVCAR-5 ovarian
[37] = system: OVCAR-8 ovarian
[38] = system: PC-3 prostate
[39] = system: RPMI-8226 leukemia
[40] = system: RXF 393 renal
[41] = system: SF-268 CNS
[42] = system: SF-295 CNS
[43] = system: SK-MEL-2 melanoma
[44] = system: SK-MEL-28 melanoma
[45] = system: SK-MEL-5 melanoma
[46] = system: SK-OV-3 ovarian
[47] = system: SN12C renal
[48] = system: SNB-19 CNS
[49] = system: SNB-75 CNS
[50] = system: SR leukemia
[51] = system: SW-620 colon
[52] = system: T-47D breast
[53] = system: TK-10 renal
[54] = system: U251 CNS
[55] = system: UACC-257 melanoma
[56] = system: UACC-62 melanoma
[57] = system: UO-31 renal

Structure (SMILES): [Cu+2].[NH-]C(CC(=O)O)C(=O)O.[NH-]C(CC(=O)O)C(=O)O (centres undefined)
- GI50 [1]: > 100 µM
- TGI [1]: > 100 µM
- GI50 [2]: 36.7 µM
- TGI [2]: > 100 µM
- GI50 [3]: 52.1 µM
- TGI [3]: > 100 µM
- GI50 [4]: > 100 µM
- TGI [4]: > 100 µM
- GI50 [5]: > 100 µM
- TGI [5]: > 100 µM
- GI50 [6]: > 100 µM
- TGI [6]: > 100 µM
- GI50 [7]: 0.929 µM
- TGI [7]: > 100 µM
- GI50 [8]: > 100 µM
- TGI [8]: > 100 µM
- GI50 [9]: > 100 µM
- TGI [9]: > 100 µM
- GI50 [10]: > 100 µM
- TGI [10]: > 100 µM
- GI50 [11]: > 100 µM
- TGI [11]: > 100 µM
- GI50 [12]: > 100 µM
- TGI [12]: > 100 µM
- GI50 [13]: > 100 µM
- TGI [13]: > 100 µM
- GI50 [14]: > 100 µM
- TGI [14]: > 100 µM
- GI50 [15]: > 100 µM
- TGI [15]: > 100 µM
- GI50 [16]: > 100 µM
- TGI [16]: > 100 µM
- GI50 [17]: > 100 µM
- TGI [17]: > 100 µM
- GI50 [18]: > 100 µM
- TGI [18]: > 100 µM
- GI50 [19]: > 100 µM
- TGI [19]: > 100 µM
- GI50 [20]: > 100 µM
- TGI [20]: > 100 µM
- GI50 [21]: > 100 µM
- TGI [21]: > 100 µM
- GI50 [22]: > 100 µM
- TGI [22]: > 100 µM
- GI50 [23]: > 100 µM
- TGI [23]: > 100 µM
- GI50 [24]: 52.3 µM
- TGI [24]: > 100 µM
- GI50 [25]: > 100 µM
- TGI [25]: > 100 µM
- GI50 [26]: 40.2 µM
- TGI [26]: > 100 µM
- GI50 [27]: > 100 µM
- TGI [27]: > 100 µM
- GI50 [28]: > 100 µM
- TGI [28]: > 100 µM
- GI50 [29]: > 100 µM
- TGI [29]: > 100 µM
- GI50 [30]: > 100 µM
- TGI [30]: > 100 µM
- GI50 [31]: > 100 µM
- TGI [31]: > 100 µM
- GI50 [32]: 91.8 µM
- TGI [32]: > 100 µM
- GI50 [33]: > 100 µM
- TGI [33]: > 100 µM
- GI50 [34]: > 100 µM
- TGI [34]: > 100 µM
- GI50 [35]: 99.2 µM
- TGI [35]: > 100 µM
- GI50 [36]: > 100 µM
- TGI [36]: > 100 µM
- GI50 [37]: > 100 µM
- TGI [37]: > 100 µM
- GI50 [38]: > 100 µM
- TGI [38]: > 100 µM
- GI50 [39]: > 100 µM
- TGI [39]: > 100 µM
- GI50 [40]: > 100 µM
- TGI [40]: > 100 µM
- GI50 [41]: > 100 µM
- TGI [41]: > 100 µM
- GI50 [42]: > 100 µM
- TGI [42]: > 100 µM
- GI50 [43]: > 100 µM
- TGI [43]: > 100 µM
- GI50 [44]: > 100 µM
- TGI [44]: > 100 µM
- GI50 [45]: 26.5 µM
- TGI [45]: > 100 µM
- GI50 [46]: > 100 µM
- TGI [46]: > 100 µM
- GI50 [47]: > 100 µM
- TGI [47]: > 100 µM
- GI50 [48]: 49.5 µM
- TGI [48]: > 100 µM
- GI50 [49]: > 100 µM
- TGI [49]: > 100 µM
- GI50 [50]: > 100 µM
- TGI [50]: > 100 µM
- GI50 [51]: > 100 µM
- TGI [51]: > 100 µM
- GI50 [52]: > 100 µM
- TGI [52]: > 100 µM
- GI50 [53]: > 100 µM
- TGI [53]: > 100 µM
- GI50 [54]: > 100 µM
- TGI [54]: > 100 µM
- GI50 [55]: > 100 µM
- TGI [55]: > 100 µM
- GI50 [56]: > 100 µM
- TGI [56]: > 100 µM
- GI50 [57]: > 100 µM
- TGI [57]: > 100 µM
